The source of these data is patent publication EP2610242A1, “Positively charged water-soluble prodrugs of aspirin” (Techfields Biochem Co. Ltd, priority 2006, dated 2008).

In brackets after ≈: the same amount, converted by molar mass. Read-outs that look alike come from different tables or passages of the source.

Series [1] can be described thus: Solubility in water of the prepared product.
Series [2] concerns mice. In words: Analgetic activity, acetic acid writhing test. Conditions: for inhibition at 50 mg/kg / inhibition at 100 mg/kg: Mus musculus, po, read-out: % (rate of writhings inhibition). Format: in vivo. (In writhing tests, fewer writhes than in controls are read as antinociception.)
Protocol: The number of writhings that occurred when mice were administered an acetic acid solution intraperitoneally were counted, and the rate of inhibition based on the control group was calculated. 42 mice were divided into 7 groups (6 mice each). Aspirin (ASA, 50 mg/kg and 100 g) was administered to groups B1 and B2 of mice and diethylaminoethyl acetylsalicylate.AcOH (DEAE-ASA, 50 mg and 100 mg/kg) was administered orally to groups C1 and C2. Diethylaminoethyl acetylsalicylate.AcOH (DEAE-ASA, 50 mg and 100 mg/kg) was administered transdermally to groups D1 and D2. The A group is the control group. The test compounds were administered to the mice 30 minutes before the acetic acid solution was administered.
For series [3], the system named is rats. Kind of series: Antipyretic activity, E. coli suspension as pyrogen, body temperature. Format: in vivo. The settings on record: for body temperature t=0 min / body temperature t=90 min / body temperature t=180 min. / body temperature t=270 min.: in °C (unit assumed).
Protocol: Antipyretic activity: Rats received a sterilized E. coli suspension as a pyrogen. 56 rats were divided into 7 groups. The control group is group A. 2 hours later, Aspirin (ASA, B1 for 100mg/kg and B2 for 150mg/kg) and diethylaminoethyl acetylsalicylate.AcOH (DEAE-ASA, C1 for 100mg/kg and C2 for 150 mg) were administered orally and diethylaminoethyl acetylsalicylate.AcOH (DEAE-ASA, D1 for 100 mg and D2 for 150 mg/kg) were administered transdermally. The body temperature of rats was taken at 90 min. intervals before and after the administration of the test compounds.
The conditions of series [4]: human, 20 % (suspension in the donor), pH 7.4.
For series [5] the following is noted: hairless, mouse, in vivo.
Series [6] relates to rats. The settings on record: rat, in vivo, po, 100 mg/kg/day, 21 days.
For series [7] the following is noted: cited from earlier work.
Series [8] can be described thus: physchem. Conditions: pH 7, aqueous buffer.
Series [9] is described as follows: Half-life in whole human blood.
Excerpt: (§3) To determine how much the pro-drugs of acetylsalicylic acid were changed back to the drug itself or diethylaminoethyl salicylate, we diluted whole human blood 20 times with a pH 7.4 phosphate buffer (0.2M).
A short description of series [10]: Acute toxicity, oral LD50. Format: in vivo. Conditions: rat, in vivo, rats, read-out: LD50 orally in rats. The source says:
(§1) The acute toxicity of the pro-drugs were investigated.

For series [11], the system named is mice. Kind of series: Analgetic activity, prolongation of pain threshold of mouse tail (D'Amour-Smith Method). Type of series: in vivo. Conditions: versus 200mg/kg aspirin, Figure 3. The protocol: Analgetic activity: The prolongation time of pain the threshold of a mouse tail was determined in accordance with the D'Amour-Smith Method (J. Pharmacol. Exp. Ther., 72, 74(1941)).
(§2) • Figure 1: Cumulative amounts of acetylsalicylic acid (ASA), ethyl acetylsalicylate(E-ASA), and diethylaminoethyl acetylsalicylate.AcOH(DEAE-ASA) crossing isolated human skin tissue in Franz cells (n=5). […] In each case, the vehicle was pH 7.4 phosphate buffer (0.2 M). • Figure 2: Total plasma levels of salicylic acid (SA) after topical application of 300 mg of acetylsalicylic acid (ASA) or diethylaminoethyl acetylsalicylate.AcOH (DEAE-ASA) to the backs of hairless mice (n=5). • Figure 3. […] A is the control line. • Figure 4. […] A is the control line.

The subject of series [12] is rats. Kind of series: Anti-inflammatory activity, carrageenin hind paw swelling. Format: in vivo. Conditions: 50mg/kg, oral administration and transdermal administration, Figure 4. Here is the method: Anti-inflammatory activity: 50 mg/kg of diethylaminoethyl acetylsalicylate.AcOH was administered orally or transdermally to rats and 50 mg/kg of aspirin was administered orally. 60 minutes later, a carrageenin solution was administered subcutaneously to the foot pads of the rats. The volume of the hind paw was measured at every hour after the administration of the carrageenin, and the rate of increase in the volume of the paw was calculated and designated as the rate of swelling(%).
as §2
(In general: Carrageenan injected into the paw causes an acute inflammation.)

Series [13] is described as follows: Solubility in pH 7 phosphate buffer. The settings on record: pH 7, aqueous buffer.
In series [14] the test system is rats. Kind of series: Gastroduodenal bleeding (fecal blood) after 21 days of oral dosing. The settings on record: 100 mg/kg per day orally for 21 days.
Series [15] can be described thus: In vitro penetration through human skin, modified Franz cells, HPLC.
Series [16] in a line: Conversion of pro-drug in whole human blood diluted 20 times with pH 7.4 phosphate buffer, HPLC. The settings on record: whole human blood diluted 20 times with pH 7.4 phosphate buffer (0.2M).
Excerpt: as §3
Series [17] is described as follows: In vivo penetration through the skin of intact hairless mice, plasma levels of salicylic acid by HPLC.
The test system of series [18] is rats. In words: Acute toxicity, oral LD50. Type of series: in vivo. The settings on record: unit printed as g.
Excerpt: as §1

The nature of series [19]: physchem.
[20] abbreviates: 50 mg/kg, groups B1 (ASA) and C1 (DEAE-ASA orally), 30 minutes before acetic acid.
Setting [21] is: 100 mg/kg, groups B2 (ASA) and C2 (DEAE-ASA orally), 30 minutes before acetic acid.
The mark [22] stands for this setting: 50 mg/kg, groups B1 (ASA) and C1 (DEAE-ASA orally).
[23] abbreviates: 100 mg/kg, groups B2 (ASA) and C2 (DEAE-ASA orally).
Setting [24] is: 50 mg/kg transdermally, group D1.
[25] abbreviates: 100 mg/kg transdermally, group D2.

On to `CCN(CC)CCCNC(=O)c1ccccc1OC(C)=O` [N-diethylaminopropyl acetylsalicylamide.AcOH], for which the concentration in solution in series [1] (solubility) was 280 mg/mL (≈ 958 mM).
In the case of `CC(=O)Oc1ccccc1C(=O)NCCN(C)C` [N-dimethylaminoethyl acetylsalicylamide.AcOH], the solubility in series [1] worked out at 350 mg/mL (≈ 1400 mM). This solubility and that of the compound before are within 1.5-fold of each other.
In series [1], `CC(=O)Oc1ccccc1C(=O)SCCN(C)C` [S-dimethylaminoethyl acetylthiosalicylate.AcOH] returned a solubility of 320 mg/mL (≈ 1200 mM).
On to `CC(=O)Oc1ccccc1C(=O)O` [acetylsalicylic acid, reference compound], for which the “No. of Writhings” value in the series with mice [2] (setting [20]) was determined as 18.2. Besides, the “No. of Writhings” value with mice [2] (setting [21]) is on record as 13.2. The inhibition at 50 mg/kg in the series with mice [2] (setting [22]) turned out to be 45%. In addition, the inhibition at 100 mg/kg in the series on mice [2] (setting [23]) worked out at 60%. Moreover, in the series with rats [3] (100mg/kg orally), the “body temperature t=0 min” value came out at 37.22±0.05, the “body temperature t=90 min” value stood at 36.80±0.05, the “body temperature t=180 min.” value is on record as 36.85±0.05 and the “body temperature t=270 min.” value is 36.81±0.05. Moreover, in the series with rats [3] (150mg/kg orally), the “body temperature t=0 min” value turned out to be 37.30±0.06, the “body temperature t=90 min” value is 36.50±0.05, the “body temperature t=180 min.” value is reported as 36.59±0.05 and the “body temperature t=270 min.” value is recorded as 36.55±0.05. Moreover, the Apparent flux values in series [4] came out at 0.25 mg/cm^2/h. In addition, the “time to peak levels of salicylic acid in plasma after application of the donor systems” value in series [5] is roughly 20 min. Besides, in the series on rats [6], the average fecal blood is on record as 5 mg of fecal blood per gram of feces. Besides, the “half live in plasma” value in [7] was roughly 15 min. In the series “physchem [8]”, this compound returned a solubility of 0.01 mg/mL (≈ 0.0555 mM). In series [9], this compound yielded a half-life of 15 min.
In the case of `CCN(CC)CCOC(=O)c1ccccc1OC(C)=O` [diethylaminoethyl acetylsalicylate.AcOH], the LD50 in series [10] came to 2300 mg/kg. For the same compound, the “analgetic activity (prolongation time of pain threshold)” value in the series with mice [11] (200 mg/kg orally (C)) and with mice [11] (200 mg/kg transdermally (D)) was “stronger analgetic activity” each time. Further, the “% (rate of writhings inhibition)” value in the series with mice [2] (setting [24]) is recorded as 56%; in the series with mice [2] (setting [25]), 70%. Further, the “No. of Writhings” value in the series on mice [2] (setting [24]) came to 14.5; in the series on mice [2] (setting [20]), 15.4; in the series with mice [2] (setting [25]), 10.1; in the series with mice [2] (setting [21]), 11. Moreover, in the series on mice [2] (setting [22]), the inhibition at 50 mg/kg is 54%. Besides, the inhibition at 100 mg/kg in the series on mice [2] (setting [23]) was found to be 67%. For the same compound, the “analgetic activity compared with aspirin” value with mice [2] (writhing test, summary of Table 1) is reported as “better analgetic activity than aspirin”. The “antipyretic activity compared with aspirin” value in the series on rats [3] (100 mg/kg dose, summary of Table 2) was “some better than aspirin”. Further, the “body temperature t=0 min” value worked out at 37.25±0.09 with rats [3] (100mg/kg orally), 37.19±0.07 in the series on rats [3] (100mg/kg transdermally), 37.18±0.07 in the series with rats [3] (150mg/kg orally) and 37.33±0.05 in the series with rats [3] (150mg/kg transdermally). Further, the “body temperature t=90 min” value in the series with rats [3] (100mg/kg orally) was found to be 36.40±0.15; in the series with rats [3] (100mg/kg transdermally), 36.40±0.05; with rats [3] (150mg/kg orally), 36.30±0.15; with rats [3] (150mg/kg transdermally), 36.27±0.15. Also, the “body temperature t=180 min.” value in the series on rats [3] (100mg/kg orally) was 36.50±0.09; in the series on rats [3] (100mg/kg transdermally), 36.38±0.05; with rats [3] (150mg/kg orally), 36.28±0.07; in the series on rats [3] (150mg/kg transdermally) it was 36.26±0.07. Also, the “body temperature t=270 min.” value is recorded as 36.40±0.15 in the series on rats [3] (100mg/kg orally), 36.40±0.15 in the series with rats [3] (100mg/kg transdermally), 36.20±0.09 in the series with rats [3] (150mg/kg orally) and 36.22±0.08 with rats [3] (150mg/kg transdermally). The “antipyretic activity, transdermal versus oral administration” value with rats [3] (summary of Table 2) is “better than oral administration”. The “Anti-inflammatory activity (rate of swelling) compared with aspirin” value in the series with rats [12] is “better Anti-inflammatory activity than that of aspirin”. Further, the half-life in series [9] (blood) was roughly 4 min. Also, the values for the solubility in series [13] and in series [1] were greater than 300 mg/mL and 300 mg/mL (≈ 1070 mM), respectively. For the same compound, in the series on rats [14], the average fecal blood entry was “none”. Further, in series [15] (isolated human skin, Franz cells, donor 20% suspension or 20% solution in pH 7.4 phosphate buffer (0.2M)), the Apparent flux values is listed as 100 mg/cm^2/h. Also, in series [15] (ratio versus acetylsalicylic acid), the “diffuses through human skin times faster than acetylsalicylic acid itself” value is roughly 400 times. Moreover, in series [15] (ratio versus ethyl acetylsalicylate), the “diffuses through human skin times faster than ethyl acetylsalicylate” value is roughly 100 times. Also, the “pro-drug changed back to the drug itself” value in series [16] is 80%. The “difference of peak plasma levels” value in [17] (pro-drug donor versus acetylsalicylic acid donor) is “approximately 100 times”. Moreover, the “peak plasma level of salicylic acid” value in [17] (topical, 30% in 1 mL isopropanol on 1 cm^2 of the back, hairless mice) was roughly 10 mg/mL. Moreover, in series [17] (versus 0.15-0.3 mg/ml), the “peak plasma level times higher than the salicylate plasma level for effective analgesia” value was 33-67 times. The “peak plasma level times higher than the salicylate plasma level for effective anti-inflammatory activity” value in series [17] (versus 0.2-0.3 mg/ml) is listed as 33-50 times.
On to `CC(=O)Oc1ccccc1C(=O)OCCN(C)C` [dimethylaminoethyl acetylsalicylate.AcOH], for which, in the series on rats [18], the “LD50 orally in rats” value came to 2.2 g. Further, the solubility in the series “physchem [19]” was 350 mg/mL (≈ 1390 mM).
Turning to `CCCN(CCC)CCOC(=O)c1ccccc1OC(C)=O` [dipropylaminoethyl acetylsalicylate.AcOH], in series [1], the solubility turned out to be 300 mg/mL (≈ 976 mM).
For `CCOC(=O)c1ccccc1OC(C)=O` [ethyl acetylsalicylate], in [4], the Apparent flux values is on record as 1 mg/cm^2/h; the “penetration rate difference between ethyl acetylsalicylate and acetylsalicylic acid” value is 4 times.
`O=C(O)c1ccccc1O` [salicylic acid]: in series [5], the “peak plasma level of salicylic acid” value was roughly 0.01 mg/mL.
“S-diethylaminoethyl propionylthiosalicylate.AcOH” yielded a Solubility in water in series [1] of 280 mg/mL.

As usually defined, the solubility is how much of the substance goes into solution per volume. A higher solubility goes with a readily soluble substance. One may read the inhibition as the drop in the measured response relative to a control, in per cent. As a reminder, the half-life is how long it takes for the measured level to halve. Low readings indicate rapid decline, high ones slow decline. In general, LD50 refers to the dose at which mortality reaches 50%.
